Reference: patent US20120214830A1, “BIOLOGICAL MARKERS PREDICTIVE OF ANTI-CANCER RESPONSE TO INSULIN-LIKE GROWTH FACTOR-1 RECEPTOR KINASE INHIBITORS IN HEPATOCELLULAR CARCINOMA” (OSI Pharmaceuticals, LLC, priority 2011, published 2012)

Key:
SNU-449 = experiment: Cell Titer-Glo proliferation assay, 72 h; assay type: cell-based; details: Homo sapiens, SNU-449 cells
Experimental: (§1) Cell lines: Twenty-one HCC cell lines were purchased from either ATCC (HepG2, Hep3B, PLC/PRF/5, SK-Hepl, SNU-182, SNU-387, SNU-398, SNU-423, SNU-449, SNU-475) or Health Science Research Resources Bank (Japan) (HUH-1, HUH-6, HUH-7, HLE, HLF, JHH-1, JHH-2, JHH-4, JHH-5, JHH-6, JHH-7). All the cell lines were maintained in media as described by the vendors. For growth inhibition assays, cells were plated and allowed to proliferate for 24 hours. After 24 hours, cells had reached approximately 15% confluency, at which time serial dilutions of OSI-906 were added and the cells grown for a further 72 hours. Cell viability was assayed using the Cell Titer-Glo reagent (Promega Corp., Madison, Wis.). Proliferation Assay. Proliferation was assayed using Cell Titer Glo assays (Promega) and was determined 72 hours following dosing with OSI-906. The basis of the assay is a luminescent quantitation of ATP present in a cell culture plate well. In essence, the greater the number of viable cells in the well, the greater the level of ATP present. The assay utilizes a substrate that binds ATP to produce a luminescent signal, which can be read on a luminometer. Unless otherwise noted, the manufacturer's instructions were followed exactly. Briefly, on Day 1, cells were plated in […] of 10% serum-containing growth media at a density of 4000 cells/well in a white polystyrene 96 well assay plate. On day 2, cells were treated with 15 μl of 10× concentration of the IGF-1R inhibitor (e.g. OSI-906) or DMSO alone for a final well volume of 150 μl. After 72 h incubation with the inhibitor, the cells were assayed. Results were calculated as a fraction of the DMSO controlled cells.

JHH-6 = experiment: Cell Titer-Glo proliferation assay, 72 h; assay type: cell-based; details: Homo sapiens, JHH-6 cells
Experimental: as §1

HLE = experiment: Cell Titer-Glo proliferation assay, 72 h; assay type: cell-based; details: Homo sapiens, HLE cells
Experimental: as §1

SK Hep-1 = experiment: Cell Titer-Glo proliferation assay, 72 h; assay type: cell-based; details: Homo sapiens, SK-HEP1, SK Hep-1 cells
Experimental: as §1

Huh-7 = experiment: Cell Titer-Glo proliferation assay, 72 h; assay type: cell-based; details: Homo sapiens, Huh-7 cells
Experimental: as §1

JHH-2 = experiment: Cell Titer-Glo proliferation assay, 72 h; assay type: cell-based; details: Homo sapiens, JHH-2 cells
Experimental: as §1

PLC/PRF/5 = experiment: Cell Titer-Glo proliferation assay, 72 h; assay type: cell-based; details: Homo sapiens, PLC/PRF/5 cells
Experimental: as §1

[1] = system: HUH-1, JHH-5 and HepG2 cells; experiment: Proliferation assay with OSI-906 after TGFβ treatment; assay type: cell-based, human; details: cells grown with 10 ng/ml TGFβ for 10 days, HUH-1, JHH-5, HepG2
Experimental: Proliferation Assay. Proliferation was assayed using Cell Titer Glo assays (Promega) and was determined 72 hours following dosing with OSI-906. The basis of the assay is a luminescent quantitation of ATP present in a cell culture plate well. In essence, the greater the number of viable cells in the well, the greater the level of ATP present. The assay utilizes a substrate that binds ATP to produce a luminescent signal, which can be read on a luminometer. Unless otherwise noted, the manufacturer's instructions were followed exactly. Briefly, on Day 1, cells were plated in 120 μl of 10% serum-containing growth media at a density of 4000 cells/well in a white polystyrene 96 well assay plate. On day 2, cells were treated with 15 μl of 10× concentration of the IGF-1R inhibitor (e.g. OSI-906) or DMSO alone for a final well volume of 150 μl. After 72 h incubation with the inhibitor, the cells were assayed. Results were calculated as a fraction of the DMSO controlled cells.

[2] = system: HCC cell lines (HepG2, Hep3B, HUH-1, HUH-6, HUH-7, JHH-5, JHH-7); experiment: Cell-titer glo proliferation assay, summary for the seven sensitive HCC cell lines; assay type: cell-based, human
Experimental: Cell lines: Twenty-one HCC cell lines were purchased from either ATCC (HepG2, Hep3B, PLC/PRF/5, SK-Hepl, SNU-182, SNU-387, SNU-398, SNU-423, SNU-449, SNU-475) or Health Science Research Resources Bank (Japan) (HUH-1, HUH-6, HUH-7, HLE, HLF, JHH-1, JHH-2, JHH-4, JHH-5, JHH-6, JHH-7). All the cell lines were maintained in media as described by the vendors. For growth inhibition assays, cells were plated and allowed to proliferate for 24 hours. After 24 hours, cells had reached approximately 15% confluency, at which time serial dilutions of OSI-906 were added and the cells grown for a further 72 hours. Cell viability was assayed using the Cell Titer-Glo reagent (Promega Corp., Madison, Wis.).
Proliferation Assay. Proliferation was assayed using Cell Titer Glo assays (Promega) and was determined 72 hours following dosing with OSI-906. The basis of the assay is a luminescent quantitation of ATP present in a cell culture plate well. […] The assay utilizes a substrate that binds ATP to produce a luminescent signal, which can be read on a luminometer. […] Results were calculated as a fraction of the DMSO controlled cells.
To test cell sensitivity of HCC cells to the IGF-1R kinase inhibitor OSI-906, twenty-one HCC cell lines were treated with different concentration of OSI-906, and cell proliferation was measured by cell-titer glo assays (FIG. 1). […]

C[C@]1(O)C[C@@H](c2nc(-c3ccc4ccc(-c5ccccc5)nc4c3)c3c(N)nccn32)C1 [OSI-906, cis-3-[8-amino-1-(2-phenyl-quinolin-7-yl)-imidazo[1,5-a]pyrazin-3-yl]-1-methyl-cyclobutanol]
inhibition at 5 µM (SNU-449; 5 μM OSI-906, 72 h): < 40%
EC50 (SNU-449; 72 h OSI-906): > 10 µM
inhibition at 5 µM (JHH-6; 5 μM OSI-906, 72 h): < 40%
EC50 (JHH-6; 72 h OSI-906): > 10 µM
inhibition at 5 µM (HLE; 5 μM OSI-906, 72 h): < 40%
EC50 (HLE; 72 h OSI-906): > 10 µM
inhibition at 5 µM (SK Hep-1; 5 μM OSI-906, 72 h): < 40%
EC50 (SK Hep-1; 72 h OSI-906): > 10 µM
inhibition at 5 µM (Huh-7; 5 μM OSI-906, 72 h): 70%
EC50 (Huh-7; 72 h OSI-906): 0.37 µM
inhibition at 5 µM (JHH-2; 5 μM OSI-906, 72 h): < 40%
EC50 (JHH-2; 72 h OSI-906): > 10 µM
inhibition at 5 µM (PLC/PRF/5; 5 μM OSI-906, 72 h): < 40%
EC50 (PLC/PRF/5; 72 h OSI-906): > 10 µM
HCC cell sensitivity to OSI-906 after TGFβ treatment [1]: decreased
maximum inhibition [2]: > 40%
EC50 ([2]; Homo sapiens): < 1 µM
